Where “and” joins values, the source holds several entries; their conditions need not be identical. Identical values can stand only once.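 Each compound was tested at five concentrations against cells in 96-well plates for 48 hours. The concentration for 50% growth inhibition is given as GI50.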 Calls of active or inactive are those of the source. Rule as the data show it: active = GI50 up to about 1.1 µM and inactive = higher.
Tests used:
Assay in all cases: inhibition of tumour cell growth, NCI panel, 48 h
[1] = test system: UACC-257
[2] = test system: SNB-75
[3] = test system: IGROV-1
[4] = test system: RXF 393
[5] = test system: TK-10
[6] = test system: HOP-92
[7] = test system: SF-539
[8] = test system: SW-620
[9] = test system: CAKI-1
[10] = test system: KM12
[11] = test system: OVCAR-3
[12] = test system: U-251
[13] = test system: PC-3
[14] = test system: SNB-19
[15] = test system: NCI-H226
[16] = test system: OVCAR-4
[17] = test system: SF-268
[18] = test system: A549
[19] = test system: NCI/ADR-RES
[20] = test system: DU-145
[21] = test system: EKVX
[22] = test system: A498
[23] = test system: MDA-N
[24] = test system: SK-MEL-28
[25] = test system: MDA-MB-231
[26] = test system: NCI-H23
[27] = test system: HCT-15
[28] = test system: OVCAR-5
[29] = test system: HT-29
[30] = test system: SN12C
[31] = test system: SK-MEL-5
[32] = test system: HCT-116
[33] = test system: SF-295
[34] = test system: OVCAR-8
[35] = test system: M14
[36] = test system: COLO 205
[37] = test system: UO-31
[38] = test system: ACHN
[39] = test system: MDA-MB-435
[40] = test system: SK-MEL-2
[41] = test system: K562
[42] = test system: MOLT-4
[43] = test system: NCI-H522
[44] = test system: HOP-62
[45] = test system: 786-0
[46] = test system: HCC 2998
[47] = test system: MCF7
[48] = test system: NCI-H460
[49] = test system: T47D
[50] = test system: Malme-3M
[51] = test system: SR
[52] = test system: SK-OV-3
[53] = test system: UACC-62
[54] = test system: RPMI-8226
[55] = test system: HL-60
[56] = test system: LOX IMVI
[57] = test system: CCRF-CEM

Compound: COC(=O)/C=C/c1cc(OC)c2c(c1)C(C(=O)OC)C(c1ccc(OC)c(OC)c1)O2 (centres undefined)
- GI50 [1]: > 100 µM (inactive)
- GI50 [2]: 1.95 µM (inactive)
- GI50 [3]: 2.27 µM (inactive)
- GI50 [4]: 4.94 µM (inactive)
- GI50 [5]: > 100 µM (inactive)
- GI50 [6]: 55.8 µM (inactive) and > 88.3 µM (inactive)

Compound: CC(=O)N1C(=O)CC2(N=C(C)CC2=O)c2ccccc21 (centres undefined)
- GI50 [7]: 0.0132 µM (active)
- GI50 [8]: > 10 µM (inactive)
- GI50 [9]: > 10 µM (inactive)
- GI50 [10]: > 10 µM (inactive)
- GI50 [11]: > 10 µM (inactive)
- GI50 [12]: > 10 µM (inactive)
- GI50 [13]: > 10 µM (inactive)
- GI50 [14]: > 10 µM (inactive)
- GI50 [2]: > 10 µM (inactive)
- GI50 [15]: > 10 µM (inactive)
- GI50 [16]: > 10 µM (inactive)
- GI50 [17]: > 10 µM (inactive)
- GI50 [18]: > 10 µM (inactive)
- GI50 [19]: > 10 µM (inactive)
- GI50 [20]: > 10 µM (inactive)
- GI50 [21]: > 10 µM (inactive)
- GI50 [22]: > 10 µM (inactive)
- GI50 [23]: > 10 µM (inactive)
- GI50 [24]: > 10 µM (inactive)
- GI50 [3]: > 10 µM (inactive)
- GI50 [25]: > 10 µM (inactive)
- GI50 [26]: > 10 µM (inactive)
- GI50 [27]: > 10 µM
- GI50 [4]: > 10 µM (inactive)
- GI50 [5]: > 10 µM (inactive)
- GI50 [28]: > 10 µM (inactive)
- GI50 [6]: > 10 µM (inactive)
- GI50 [29]: > 10 µM (inactive)
- GI50 [30]: > 10 µM (inactive)
- GI50 [31]: > 10 µM (inactive)
- GI50 [32]: > 10 µM (inactive)
- GI50 [33]: > 10 µM (inactive)
- GI50 [34]: > 10 µM (inactive)
- GI50 [35]: > 10 µM (inactive)
- GI50 [36]: > 10 µM (inactive)
- GI50 [37]: 1.49 µM (inactive)
- GI50 [38]: > 10 µM (inactive)
- GI50 [39]: > 10 µM (inactive)

Compound: NCCCNOCCCN
- GI50 [7]: > 100 µM (inactive)
- GI50 [40]: > 100 µM (inactive)
- GI50 [41]: > 100 µM (inactive)
- GI50 [42]: > 100 µM (inactive)
- GI50 [43]: > 100 µM (inactive)
- GI50 [44]: > 100 µM (inactive)
- GI50 [8]: > 100 µM (inactive)
- GI50 [9]: > 100 µM (inactive)
- GI50 [10]: > 100 µM (inactive)
- GI50 [11]: > 100 µM (inactive)
- GI50 [45]: > 100 µM (inactive)
- GI50 [12]: 43.7 µM (inactive)
- GI50 [13]: > 100 µM (inactive)
- GI50 [14]: > 100 µM (inactive)
- GI50 [46]: > 100 µM (inactive)
- GI50 [16]: > 100 µM (inactive)
- GI50 [47]: > 100 µM (inactive)
- GI50 [48]: > 100 µM (inactive)
- GI50 [17]: > 100 µM (inactive)
- GI50 [18]: > 100 µM (inactive)
- GI50 [49]: > 100 µM (inactive)
- GI50 [19]: > 100 µM (inactive)
- GI50 [20]: > 100 µM (inactive)
- GI50 [22]: > 100 µM (inactive)
- GI50 [23]: > 100 µM (inactive)
- GI50 [50]: > 100 µM (inactive)
- GI50 [24]: > 100 µM (inactive)
- GI50 [25]: > 100 µM (inactive)
- GI50 [51]: 2.26 µM (inactive)
- GI50 [26]: > 100 µM (inactive)
- GI50 [27]: > 100 µM
- GI50 [4]: > 100 µM (inactive)
- GI50 [5]: > 100 µM (inactive)
- GI50 [28]: > 100 µM (inactive)
- GI50 [6]: 37.8 µM (inactive)
- GI50 [29]: > 100 µM (inactive)
- GI50 [30]: > 100 µM (inactive)
- GI50 [31]: > 100 µM (inactive)
- GI50 [32]: > 100 µM (inactive)
- GI50 [52]: > 100 µM (inactive)
- GI50 [33]: > 100 µM (inactive)
- GI50 [34]: > 100 µM (inactive)
- GI50 [35]: > 100 µM (inactive)
- GI50 [36]: > 100 µM (inactive)
- GI50 [37]: > 100 µM (inactive)
- GI50 [53]: > 100 µM (inactive)
- GI50 [38]: > 100 µM (inactive)
- GI50 [39]: > 100 µM (inactive)
- GI50 [54]: > 100 µM (inactive)

Compound: O=C(N/N=C/c1cc(Cl)cc(Cl)c1O)c1ccccc1O
- GI50 [41]: 0.519 µM (active)
- GI50 [1]: 1.63 µM (inactive)
- GI50 [43]: 0.254 µM (active)
- GI50 [44]: 1.67 µM (inactive)
- GI50 [8]: 0.735 µM (active)
- GI50 [9]: 0.723 µM (active)
- GI50 [11]: 0.282 µM (active)
- GI50 [12]: 0.445 µM (active)
- GI50 [14]: 1.91 µM (inactive)
- GI50 [46]: 3.18 µM (inactive)
- GI50 [2]: 3.05 µM (inactive)
- GI50 [15]: 1.37 µM (inactive)
- GI50 [16]: 0.22 µM (active)
- GI50 [48]: 0.537 µM (active)
- GI50 [17]: 0.351 µM (active)
- GI50 [24]: 1 µM (active)
- GI50 [3]: 1.69 µM (inactive)
- GI50 [51]: 0.281 µM (active)
- GI50 [27]: 0.395 µM
- GI50 [4]: 1.31 µM (inactive)
- GI50 [5]: 3.06 µM (inactive)
- GI50 [28]: 2.53 µM (inactive)
- GI50 [29]: 3.49 µM (inactive)
- GI50 [31]: 1.28 µM (inactive)
- GI50 [52]: 0.929 µM (active)
- GI50 [33]: 0.526 µM (active)
- GI50 [34]: 0.344 µM (active)
- GI50 [35]: 0.521 µM (active)
- GI50 [55]: 0.175 µM (active)
- GI50 [37]: 1.69 µM (inactive)
- GI50 [56]: 0.303 µM (active)
- GI50 [53]: 0.254 µM (active)
- GI50 [38]: 0.346 µM (active)

Compound: CCNc1ncnc2c1nnn2CC
- GI50 [7]: > 100 µM (inactive)
- GI50 [40]: > 100 µM (inactive)
- GI50 [41]: > 100 µM (inactive)
- GI50 [42]: > 100 µM (inactive)
- GI50 [1]: > 100 µM (inactive)
- GI50 [43]: > 100 µM (inactive)
- GI50 [44]: > 100 µM (inactive)
- GI50 [8]: > 100 µM (inactive)
- GI50 [9]: > 100 µM (inactive)
- GI50 [10]: > 100 µM (inactive)
- GI50 [11]: > 100 µM (inactive)
- GI50 [45]: > 100 µM (inactive)
- GI50 [12]: > 100 µM (inactive)
- GI50 [13]: > 100 µM (inactive)
- GI50 [14]: > 100 µM (inactive)
- GI50 [46]: > 100 µM (inactive)
- GI50 [2]: 77.1 µM (inactive)
- GI50 [15]: > 100 µM (inactive)
- GI50 [16]: > 100 µM (inactive)
- GI50 [47]: > 100 µM (inactive)
- GI50 [18]: > 100 µM (inactive)
- GI50 [49]: > 100 µM (inactive)
- GI50 [19]: > 100 µM (inactive)
- GI50 [20]: > 100 µM (inactive)
- GI50 [21]: > 100 µM (inactive)
- GI50 [22]: > 100 µM (inactive)
- GI50 [23]: > 100 µM (inactive)
- GI50 [50]: > 100 µM (inactive)
- GI50 [24]: > 100 µM (inactive)
- GI50 [3]: > 100 µM (inactive)
- GI50 [25]: > 100 µM (inactive)
- GI50 [26]: > 100 µM (inactive)
- GI50 [27]: > 100 µM
- GI50 [57]: > 100 µM (inactive)
- GI50 [4]: > 100 µM (inactive)
- GI50 [5]: > 100 µM (inactive)
- GI50 [6]: 72.1 µM (inactive)
- GI50 [29]: > 100 µM (inactive)
- GI50 [30]: > 100 µM (inactive)
- GI50 [31]: > 100 µM (inactive)
- GI50 [32]: > 100 µM (inactive)
- GI50 [52]: > 100 µM (inactive)
- GI50 [33]: 79.6 µM (inactive)
- GI50 [34]: 97.5 µM (inactive)
- GI50 [35]: > 100 µM (inactive)
- GI50 [55]: > 100 µM (inactive)
- GI50 [36]: > 100 µM (inactive)
- GI50 [37]: > 100 µM (inactive)
- GI50 [56]: > 100 µM (inactive)
- GI50 [53]: > 100 µM (inactive)
- GI50 [38]: > 100 µM (inactive)
- GI50 [39]: > 100 µM (inactive)
- GI50 [54]: > 100 µM (inactive)

Source: ChEMBL document CHEMBL1201862, “PubChem BioAssay data set” (2004)
